Experimental data from patent US20080096922A1, “Novel Sulfonamide derivative” (Dainippon Sumitomo Pharma Co., Ltd., priority 2004, published 2008).
Counter-ions that a name gives are not always drawn.

Each compound was assayed on LDL receptor (assay: Effects on an activity of a LDL receptor: uptake amount of DiI-LDL into HepG2 cell). Settings: 10 μM, control group as 100%.
Assay type: cell-based, human
Protocol: The 1,1′-dioctadecyl-3,3,3′,3′-tetramethylindocarbocyanine perchlorate (DiI)-labeled LDL (DiI-LDL) was prepared as follows. That is, a DiI (Invitrogen Corp., U.S.A) was mixed with a human LDL (Chemicon International, Inc., U.S.A) and the mixture was incubated at 37° C. for 8 hours. […] After centrifugation, the DiI-labeled LDL fraction was separated and dialyzed with a physiological saline to prepare the above desired solution.
The effects on a LDL receptor activity were determined as the uptake amount of DiI-LDL into HepG2 cell. The cultured human hepatic cell line HepG2 cell was purchased from the Dainippon Pharmaceuticals Co. Ltd. (Osaka, Japan). The HepG2 cells were seeded in a 96 well plate and were incubated in the Dulbecco's modified Eagle/F-12 (DMEM/F-12) medium containing 10% fetal bovine serum and antibiotics in a CO2 incubator at 37° C. for two to three days. After washing the cells, a DMEM/F-12 medium containing 5-10% lipoprotein-deficient serum, the test substrate and the antibiotics were added thereto and the cells were incubated at 37° C. for 19 hours. After adding DiI-LDL, the cells were incubated in a CO2 incubator at 37° C. for another 5 hours. The uptake amount of non-specific DiI-LDL was measured by adding 30 to 50 folds amount of the non-labeled LDL. After washing the cells with Dulbecco's phosphate buffer (Sigma Corp., U.S.A.), the Dulbecco's phosphate buffer was added to each well and then the uptake amount of DiI-LDL into the cell line were measured as the value of fluorescence. After measuring the fluorescence, the Dulbecco's phosphate buffer was removed and thereto was added 1N sodium hydroxide solution to dissolve the cells and the amount of protein was measured by using a part of the resulting solution. The effect on a LDL receptor activity by each compound was determined by calculating the ratio of the amount of fluorescence/the amount of protein, and by subtracting the non-specific uptake amount therefrom and then calculating the control group as 100%.

SMILES | Activity of (%) LDL receptor [%]
COc1cccc(C2(C(=O)NS(=O)(=O)Oc3ccccc3C(C)(C)C)CCN(c3ccccc3OC)CC2)c1 [Example 1-8, 2-tert-butylphenyl {[1-(2-methoxyphenyl)-4-(3-methoxyphenyl)piperidin-4-yl]carbonyl}sulfamate] | 134
COc1cccc(C2(C(=O)NS(=O)(=O)Oc3c(C(C)C)cccc3C(C)C)CCN(c3ncccn3)CC2)c1 [Example 1-17, 2,6-diisopropylphenyl {[4-(3-methoxyphenyl)-1-pyrimidin-2-ylpiperidin-4-yl]carbonyl}sulfamate] | 120
COc1cccc(C2(C(=O)NS(=O)(=O)Oc3c(C(C)C)cccc3C(C)C)CCN(c3nc4ccccc4s3)CC2)c1 [Example 1-19, 2,6-diisopropylphenyl {[1-(1,3-benzothiazol-2-yl)-4-(3-methoxyphenyl)piperidin-4-yl]carbonyl}sulfamate] | 132
COc1cccc(C2(C(=O)NP(=O)(Cc3ccccc3C)OC)CCN(c3ccccc3OC)CC2)c1 (stereo not shown) [Example 2-1, methyl N-{[1-(2-methoxyphenyl)-4-(3-methoxyphenyl)piperidin-4-yl]carbonyl}-P-(2-methylbenzyl)-phosphonamidate] | 140
COc1cccc(C2(C(=O)NS(=O)(=O)Oc3c(C(C)C)cccc3C(C)C)CCC(Nc3ccccc3OC)CC2)c1 (stereo not shown) [Example 3-2, 2,6-diisopropylphenyl ({1-(3-methoxyphenyl)-4-[(2-methoxyphenyl)amino]cyclohexyl}carbonyl)sulfamate] | 154
COc1cccc([C@]2(CNS(C)(=O)=O)CC[C@@H](NC3CCNCC3)CC2)c1 [Example 10-3, N-{[cis-1-(3-methoxyphenyl)-4-(piperidin-4-ylamino)-cyclohexyl]methyl}methanesulfonamide dihydrochloride] | 162
COc1cccc([C@]2(CNS(C)(=O)=O)CC[C@@H](NCc3ccc(S(C)(=O)=O)cc3)CC2)c1 [Example 12-2, N-[(cis-1-(3-methoxyphenyl)-4-{[4-(methylsulfonyl)benzyl]-amino}cyclohexyl)methyl]methanesulfonamide] | 142
COc1cccc([C@]2(CNS(C)(=O)=O)CC[C@H](N3CCN(C)CC3)CC2)c1 [Example 13-1, N-{[trans-1-(3-methoxyphenyl)-4-(4-methylpiperazin-1-yl)cyclohexyl]methyl}methanesulfonamide] | 129
COc1cccc([C@]2(CNS(C)(=O)=O)CC[C@@H](NC3CCN(Cc4ccc(NC(C)=O)cc4)CC3)CC2)c1 [Example 15-1, N-[4-({4-[(cis-4-(3-methoxyphenyl)-4-{[(methylsulfonyl)-amino]methyl}cyclohexyl)amino]piperidin-1-yl}methyl)phenyl]acetamide] | 192
COc1cccc([C@]2(CNS(C)(=O)=O)CC[C@@H](NC3CCN(Cc4ccc(S(C)(=O)=O)cc4)CC3)CC2)c1 [Example 15-2, N-[(cis-1-(3-methoxyphenyl)-4-{1-[4-(methylsulfonyl)-benzyl]piperidin-4-ylamino}cyclohexyl)methyl]methanesulfonamide] | 223
COc1cccc([C@]2(CNS(N)(=O)=O)CC[C@@H](NC3CCN(Cc4ccccc4)CC3)CC2)c1 [Example 18-1, N-{[cis-4-[(1-benzylpiperidin-4-yl)amino]-1-(3-methoxyphenyl)cyclohexyl]methyl}sulfamide] | 230
COc1cccc([C@]2(CNS(N)(=O)=O)CC[C@@H](NCc3ccc(-n4ccnc4)cc3)CC2)c1 [Example 18-2, N-{[cis-4-{[4-(1H-imidazol-1-yl)benzyl]amino}-1-(3-methoxyphenyl)cyclohexyl]methyl}sulfamide] | 161
COc1cccc([C@]2(CNS(N)(=O)=O)CC[C@@H](NCc3ccc(-n4cncn4)cc3)CC2)c1 [Example 18-3, N-[(cis-1-(3-methoxyphenyl)-4-{[4-(1H-1,2,4-triazol-1-yl)-benzyl]amino}cyclohexyl)methyl]sulfamide] | 154
